According to patent US11286231B2, “Hydrogen-bonding compounds, compositions comprising the same, and methods of preparing and using the same” (Wake Forest University Health Sciences, priority 2016, dated 2022):

Experiments:
[1] = Preliminary rheology, shear elastic modulus G′ of modular HA hydrogel with catechol amine; type: physicochemical; conditions: catechol amine bound to thiolated HA/gelatin hydrogel via thiol-alkyne, FIG. 1
Description: (§1) These increases were not observed in control groups. This gives validation to the activity of the newly added catechol components of the system. […] Following this observation we employed the rheometer using a customized protocol to apply a tensile stretch to hydrogels that had immobilized between the base and testing geometry of the rheometry. The geometry was brought into contact with the sample and lowered until 0.4 N normal force was reached by the load cell. At this point, the sample was allowed to equilibrate for 30 seconds, after which the rheometer applied constant displacement vertically at 5 um/s, raising the geometry 1000 um, during which time resistive force (“stickiness”) was measured by the load cell every second.
Mechanical bulk properties. Hydrogels will be formed in custom molded 12 mm dishes and assessed by rheology to determine bulk material shear elastic modulus. […]

[2] = Preliminary rheometer tensile stretch (stickiness) test of catechol amine hydrogel; type: physicochemical
Description: as §1

C#CCNCc1ccc(O)c(O)c1 [Compound C1.1]
G′ values of the hydrogel constructs (change) [1]: further increased the G′ values | increase in tensile resistance ([2]; catechol amine containing hydrogel, 5 um/s, 1000 um, FIG. 2, preliminary): 3 fold | stickiness of hydrogel constructs during mechanical shear testing ([2]; qualitative): significantly more “stickiness”
